# Assay results as given in ChEMBL document CHEMBL4477225, “Development of a cell viability assay to assess drug metabolite structure-toxicity relationships” (Bioorg Med Chem Lett, 2016).
# Assays:
# Settings in all cases: recombinant enzyme
# [1] = target: T1, Cytochrome P450 2D6 (Homo sapiens, UniProt P10635); assay: (§1) Drug activation in human Hep3B cells assessed as human CYP2D6-mediated drug metabolism-induced cytotoxicity measured as decrease in cell viability at 54.3 uM pre-incubated with BSO for 18 hrs followed by incubation with compound for 3 hrs in presence of NADPH measured after 24 hrs in absence of compound, CYP3A4 and NADPH by cell titer-glo luminescence assay relative to BSO alone; type: ADME, cell-based
# [2] = target: T2, Cytochrome P450 2C9 (Homo sapiens, UniProt P11712); assay: as §1, with “CYP2C9-mediated” for “CYP2D6-mediated”, “44” for “54.3”; type: ADME, cell-based
# [3] = target: T3, Cytochrome P450 3A4 (Homo sapiens, UniProt P08684); assay: as §1, with “CYP3A4-mediated” for “CYP2D6-mediated”, “45.8” for “54.3”; type: ADME, cell-based
# [4] = target: T3, Cytochrome P450 3A4; assay: as §1, with “CYP3A4-mediated” for “CYP2D6-mediated”, “53” for “54.3”; type: ADME, cell-based
# [5] = target: T1, Cytochrome P450 2D6; assay: as §1, with “5.8” for “54.3”; type: ADME, cell-based
# [6] = target: T2, Cytochrome P450 2C9; assay: as §1, with “CYP2C9-mediated” for “CYP2D6-mediated”, “47.3” for “54.3”; type: ADME, cell-based
# [7] = target: T3, Cytochrome P450 3A4; assay: as §1, with “CYP3A4-mediated” for “CYP2D6-mediated”, “16.3” for “54.3”; type: ADME, cell-based
# [8] = target: T1, Cytochrome P450 2D6; assay: as §1, with “15.6” for “54.3”; type: ADME, cell-based
# [9] = target: T2, Cytochrome P450 2C9; assay: as §1, with “CYP2C9-mediated” for “CYP2D6-mediated”, “17.1” for “54.3”; type: ADME, cell-based
# [10] = target: T1, Cytochrome P450 2D6; assay: as §1, with “31.6” for “54.3”; type: ADME, cell-based
# [11] = target: T3, Cytochrome P450 3A4; assay: as §1, with “CYP3A4-mediated” for “CYP2D6-mediated”, “14” for “54.3”; type: ADME, cell-based
# [12] = target: T2, Cytochrome P450 2C9; assay: as §1, with “CYP2C9-mediated” for “CYP2D6-mediated”, “224.2” for “54.3”; type: ADME, cell-based
# [13] = target: T2, Cytochrome P450 2C9; assay: as §1, with “CYP2C9-mediated” for “CYP2D6-mediated”, “71.3” for “54.3”; type: ADME, cell-based
# [14] = target: T1, Cytochrome P450 2D6; assay: as §1, with “300” for “54.3”
# [15] = target: T3, Cytochrome P450 3A4; assay: as §1, with “CYP3A4-mediated” for “CYP2D6-mediated”, “300” for “54.3”
# [16] = target: T3, Cytochrome P450 3A4; assay: as §1, with “CYP3A4-mediated” for “CYP2D6-mediated”, “90.1” for “54.3”; type: ADME, cell-based
# [17] = target: T1, Cytochrome P450 2D6; assay: as §1, with “113.7” for “54.3”; type: ADME, cell-based
# [18] = target: T2, Cytochrome P450 2C9; assay: as §1, with “CYP2C9-mediated” for “CYP2D6-mediated”, “174.8” for “54.3”; type: ADME, cell-based
# [19] = target: T2, Cytochrome P450 2C9; assay: as §1, with “CYP2C9-mediated” for “CYP2D6-mediated”, “51.1” for “54.3”; type: ADME, cell-based
# [20] = target: T1, Cytochrome P450 2D6; assay: as §1, with “21.3” for “54.3”; type: ADME, cell-based
# [21] = target: T3, Cytochrome P450 3A4; assay: as §1, with “CYP3A4-mediated” for “CYP2D6-mediated”, “74.4” for “54.3”; type: ADME, cell-based
# [22] = target: T2, Cytochrome P450 2C9; assay: as §1, with “CYP2C9-mediated” for “CYP2D6-mediated”, “34” for “54.3”; type: ADME, cell-based
# [23] = target: T2, Cytochrome P450 2C9; assay: as §1, with “CYP2C9-mediated” for “CYP2D6-mediated”, “39” for “54.3”; type: ADME, cell-based
# [24] = target: T3, Cytochrome P450 3A4; assay: as §1, with “CYP3A4-mediated” for “CYP2D6-mediated”, “22.3” for “54.3”; type: ADME, cell-based
# [25] = target: T1, Cytochrome P450 2D6; assay: as §1, with “17.6” for “54.3”; type: ADME, cell-based
# [26] = target: T3, Cytochrome P450 3A4; assay: as §1, with “CYP3A4-mediated” for “CYP2D6-mediated”, “154.5” for “54.3”; type: ADME, cell-based
# [27] = target: T2, Cytochrome P450 2C9; assay: as §1, with “CYP2C9-mediated” for “CYP2D6-mediated”, “150” for “54.3”; type: ADME, cell-based
# [28] = target: T1, Cytochrome P450 2D6; assay: as §1, with “188.9” for “54.3”; type: ADME, cell-based
# [29] = target: T1, Cytochrome P450 2D6; assay: as §1, with “79.2” for “54.3”; type: ADME, cell-based
# [30] = target: T2, Cytochrome P450 2C9; assay: as §1, with “CYP2C9-mediated” for “CYP2D6-mediated”, “49.7” for “54.3”; type: ADME, cell-based
# [31] = target: T3, Cytochrome P450 3A4; assay: as §1, with “CYP3A4-mediated” for “CYP2D6-mediated”, “29.6” for “54.3”; type: ADME, cell-based
# [32] = target: T1, Cytochrome P450 2D6; assay: as §1, with “27.8” for “54.3”; type: ADME, cell-based
# [33] = target: T2, Cytochrome P450 2C9; assay: as §1, with “CYP2C9-mediated” for “CYP2D6-mediated”, “136.1” for “54.3”; type: ADME, cell-based
# [34] = target: T3, Cytochrome P450 3A4; assay: as §1, with “CYP3A4-mediated” for “CYP2D6-mediated”, “20.4” for “54.3”; type: ADME, cell-based
# [35] = target: T1, Cytochrome P450 2D6; assay: as §1, with “13” for “54.3”; type: ADME, cell-based
# [36] = target: T2, Cytochrome P450 2C9; assay: as §1, with “CYP2C9-mediated” for “CYP2D6-mediated”, “9.1” for “54.3”; type: ADME, cell-based
# [37] = target: T1, Cytochrome P450 2D6; assay: as §1, with “12.2” for “54.3”; type: ADME, cell-based
# [38] = target: T2, Cytochrome P450 2C9; assay: as §1, with “CYP2C9-mediated” for “CYP2D6-mediated”, “9.7” for “54.3”; type: ADME, cell-based
# [39] = target: T3, Cytochrome P450 3A4; assay: as §1, with “CYP3A4-mediated” for “CYP2D6-mediated”, “7.6” for “54.3”; type: ADME, cell-based
# [40] = target: T2, Cytochrome P450 2C9; assay: as §1, with “CYP2C9-mediated” for “CYP2D6-mediated”, “452.5” for “54.3”; type: ADME, cell-based
# [41] = target: T1, Cytochrome P450 2D6; assay: as §1, with “2.1” for “54.3”; type: ADME, cell-based
# [42] = target: T3, Cytochrome P450 3A4; assay: as §1, with “CYP3A4-mediated” for “CYP2D6-mediated”, “53.7” for “54.3”; type: ADME, cell-based
# [43] = target: T2, Cytochrome P450 2C9; assay: as §1, with “CYP2C9-mediated” for “CYP2D6-mediated”, “88.3” for “54.3”; type: ADME, cell-based
# [44] = target: T3, Cytochrome P450 3A4; assay: as §1, with “CYP3A4-mediated” for “CYP2D6-mediated”, “70.3” for “54.3”; type: ADME, cell-based
# [45] = target: T1, Cytochrome P450 2D6; assay: as §1, with “52.1” for “54.3”; type: ADME, cell-based
# T2 sequence (P11712 whole entry): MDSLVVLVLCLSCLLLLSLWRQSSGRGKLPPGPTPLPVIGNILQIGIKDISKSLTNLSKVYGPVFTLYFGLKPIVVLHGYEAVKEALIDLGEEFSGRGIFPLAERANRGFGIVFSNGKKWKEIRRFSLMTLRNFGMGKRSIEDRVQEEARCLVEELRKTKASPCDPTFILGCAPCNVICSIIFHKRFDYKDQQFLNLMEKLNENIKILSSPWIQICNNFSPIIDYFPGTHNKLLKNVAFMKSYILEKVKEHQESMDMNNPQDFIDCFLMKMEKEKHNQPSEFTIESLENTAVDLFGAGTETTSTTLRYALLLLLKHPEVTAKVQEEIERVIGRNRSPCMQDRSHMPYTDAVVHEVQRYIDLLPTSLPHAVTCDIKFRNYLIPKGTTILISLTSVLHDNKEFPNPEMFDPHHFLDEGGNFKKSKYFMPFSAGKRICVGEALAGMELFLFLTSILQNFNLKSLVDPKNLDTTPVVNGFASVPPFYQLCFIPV
# T3 sequence (P08684 whole entry): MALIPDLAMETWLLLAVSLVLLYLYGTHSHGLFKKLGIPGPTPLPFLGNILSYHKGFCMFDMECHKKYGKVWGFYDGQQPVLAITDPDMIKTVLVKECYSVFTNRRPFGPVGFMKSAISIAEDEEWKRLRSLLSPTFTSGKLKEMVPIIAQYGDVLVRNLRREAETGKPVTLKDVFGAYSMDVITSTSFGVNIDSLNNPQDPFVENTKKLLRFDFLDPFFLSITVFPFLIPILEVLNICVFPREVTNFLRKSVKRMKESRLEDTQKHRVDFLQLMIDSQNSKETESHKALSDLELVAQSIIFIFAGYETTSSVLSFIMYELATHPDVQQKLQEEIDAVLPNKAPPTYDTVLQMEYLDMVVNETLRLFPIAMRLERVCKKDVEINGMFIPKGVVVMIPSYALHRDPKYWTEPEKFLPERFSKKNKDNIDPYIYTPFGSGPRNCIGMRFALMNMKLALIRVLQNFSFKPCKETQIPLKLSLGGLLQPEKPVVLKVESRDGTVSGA
# T1 sequence (P10635 whole entry): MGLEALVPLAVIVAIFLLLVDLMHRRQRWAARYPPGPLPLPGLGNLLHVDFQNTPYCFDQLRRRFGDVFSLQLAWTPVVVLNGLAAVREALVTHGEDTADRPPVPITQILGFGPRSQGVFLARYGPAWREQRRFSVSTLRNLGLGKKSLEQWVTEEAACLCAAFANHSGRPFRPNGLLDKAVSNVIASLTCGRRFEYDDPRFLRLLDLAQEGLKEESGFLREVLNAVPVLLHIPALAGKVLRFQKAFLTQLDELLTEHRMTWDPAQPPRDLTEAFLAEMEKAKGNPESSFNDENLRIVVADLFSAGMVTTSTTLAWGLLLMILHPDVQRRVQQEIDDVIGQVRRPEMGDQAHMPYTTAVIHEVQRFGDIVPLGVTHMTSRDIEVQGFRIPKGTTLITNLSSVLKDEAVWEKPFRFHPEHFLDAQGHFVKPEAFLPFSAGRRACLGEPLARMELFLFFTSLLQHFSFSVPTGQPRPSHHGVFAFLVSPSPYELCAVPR
smiles,measurement,setting,value
CC(C)(C)NC(=O)[C@@H]1C[C@@H]2CCCC[C@@H]2CN1C[C@@H](O)[C@H](Cc1ccccc1)NC(=O)[C@H](CC(N)=O)NC(=O)c1ccc2ccccc2n1,fold change (FC),[1],0.7
same,fold change (FC),[2],0.8
same,fold change (FC),[3],0.8
CCc1oc2ccccc2c1C(=O)c1ccc(O)cc1 [BENZARONE],fold change (FC),[4],0.8
same,fold change (FC),[5],7.5
same,fold change (FC),[6],0.9
CCc1oc2ccccc2c1C(=O)c1cc(I)c(O)c(I)c1 [BENZIODARONE],fold change (FC),[7],2.2
same,fold change (FC),[8],2.3
same,fold change (FC),[9],2.1
CC(O)(CS(=O)(=O)c1ccc(F)cc1)C(=O)Nc1ccc(C#N)c(C(F)(F)F)c1 (stereo not given) [BICALUTAMIDE],fold change (FC),[10],0.7
same,fold change (FC),[11],1.7
same,fold change (FC),[12],0.1
CC(C(=O)O)c1cccc(Oc2ccccc2)c1 (stereo not given) [FENOPROFEN],fold change (FC),[13],4.2
same,FC,[14],1
same,FC,[15],1
CC(C)C(=O)Nc1ccc([N+](=O)[O-])c(C(F)(F)F)c1 [FLUTAMIDE],fold change (FC),[16],1.6
same,fold change (FC),[17],1.2
same,fold change (FC),[18],0.8
CN(C)CCCN1c2ccccc2CCc2ccccc21 [IMIPRAMINE],fold change (FC),[19],0.3
same,fold change (FC),[20],0.7
same,fold change (FC),[21],0.2
CC(=O)N1CCN(c2ccc(OCC3COC(Cn4ccnc4)(c4ccc(Cl)cc4Cl)O3)cc2)CC1 (stereo not given) [KETOCONAZOLE],fold change (FC),[22],1.4
O=C(c1ccccc1)c1ccc2n1CCC2C(=O)O (stereo not given) [KETOROLAC],fold change (FC),[23],0.4
same,fold change (FC),[24],0.6
same,fold change (FC),[25],0.8
CS(=O)(=O)CCNCc1ccc(-c2ccc3ncnc(Nc4ccc(OCc5cccc(F)c5)c(Cl)c4)c3c2)o1 [LAPATINIB],fold change (FC),[26],0.3
same,fold change (FC),[27],0.3
same,fold change (FC),[28],0.2
CC(C)(O)c1ccccc1CC[C@@H](SCC1(CC(=O)O)CC1)c1cccc(/C=C/c2ccc3ccc(Cl)cc3n2)c1 [MONTELUKAST],fold change (FC),[29],0.5
same,fold change (FC),[30],0.7
same,fold change (FC),[31],1.2
CCc1nn(CCCN2CCN(c3cccc(Cl)c3)CC2)c(=O)n1CCOc1ccccc1 [NEFAZODONE],fold change (FC),[32],3
same,fold change (FC),[33],0.6
same,fold change (FC),[34],4.1
Fc1ccc([C@@H]2CCNC[C@H]2COc2ccc3c(c2)OCO3)cc1 [PAROXETINE],fold change (FC),[35],0.4
same,fold change (FC),[36],0.6
C1CCC(C(CC2CCCCN2)C2CCCCC2)CC1 (stereo not given) [PERHEXILINE],fold change (FC),[37],0.4
same,fold change (FC),[38],0.5
same,fold change (FC),[39],0.7
CC(C)NCC(O)COc1cccc2ccccc12 (stereo not given) [PROPRANOLOL],fold change (FC),[40],0.6
same,fold change (FC),[41],120.7
same,fold change (FC),[42],4.7
C=CC[C@@H]1/C=C(\C)C[C@H](C)C[C@H](OC)[C@H]2O[C@@](O)(C(=O)C(=O)N3CCCC[C@H]3C(=O)O[C@H](/C(C)=C/[C@@H]3CC[C@@H](O)[C@H](OC)C3)[C@H](C)[C@@H](O)CC1=O)[C@H](C)C[C@@H]2OC [TACROLIMUS ANHYDROUS],fold change (FC),[43],1.3
same,fold change (FC),[44],1.6
same,fold change (FC),[45],2.2
